Earlier results in patent US20240315993A1, “ANTIPARASITIC COMPOUNDS” (Intervet Inc., priority 2021, published 2024).

How the values were obtained:
[1] = tested on: Cabbage Looper (Trichoplusia ni); details: Cabbage Looper second instar larvae, 128-well diet tray, 50 μg/cm^2, five to seven days, average of eight wells; cited from earlier work
[2] = tested on: Beet Armyworm (Spodoptera exigua); details: Beet Armyworm second instar larvae, 128-well diet tray, 50 μg/cm^2, five to seven days, average of eight wells; cited from earlier work
[3] = tested on: Yellow Fever Mosquito (Aedes aegypti); details: Aedes aegypti larvae about 1 day old, 96-well plate, scored after 3 days; cited from earlier work

Structure (SMILES)	Test B: Bioassay on CL, percent mortality rating [1]	Test A: Bioassay on BAW, percent mortality rating [2]	Test C: Bioassay on Yellow Fever Mosquito, mortality rating [3]
Cc1ccc(NC(=O)c2cc(NC(=O)C3C(c4cc(Cl)cc(Cl)c4)C3(Cl)Cl)ccc2Cl)c([N+](=O)[O-])c1 (stereo not drawn) [c52]	A (50-100)	A (50-100)	A (80-100)
N#Cc1cc(C(F)(F)F)ccc1NC(=O)c1cc(NC(=O)C2C(c3cc(Cl)cc(Cl)c3)C2(Cl)Cl)ccc1Cl (stereo not drawn) [c53]	A (50-100)	A (50-100)	A (80-100)
N#Cc1ccc(NC(=O)c2cc(NC(=O)C3C(c4cc(Cl)cc(Cl)c4)C3(Cl)Cl)ccc2Cl)cc1C(F)(F)F (stereo not drawn) [c54]	A (50-100)	A (50-100)	A (80-100)
O=C(Nc1ccc2c(c1)C(=O)NC2=O)c1cc(NC(=O)C2C(c3cc(Cl)cc(Cl)c3)C2(Cl)Cl)ccc1Cl (stereo not drawn) [c55]	A (50-100)	A (50-100)	D (No activity noticed in this bioassay)
N#Cc1cc(N)ccc1NC(=O)c1cc(NC(=O)C2C(c3cc(Cl)cc(Cl)c3)C2(Cl)Cl)ccc1Cl (stereo not drawn) [c56]	A (50-100)	A (50-100)	A (80-100)
CC(=O)N(C(C)=O)c1ccc(NC(=O)c2cc(NC(=O)C3C(c4cc(Cl)cc(Cl)c4)C3(Cl)Cl)ccc2Cl)c(C#N)c1 (stereo not drawn) [c57]	A (50-100)	A (50-100)	A (80-100)
CNc1ccc(NC(=O)c2cc(NC(=O)C3C(c4cc(Cl)cc(Cl)c4)C3(Cl)Cl)ccc2Cl)c(C#N)c1 (stereo not drawn) [c58]	A (50-100)	A (50-100)	A (80-100)
Cc1cc(N)ccc1NC(=O)c1cc(NC(=O)C2C(c3cc(Cl)cc(Cl)c3)C2(Cl)Cl)ccc1Cl (stereo not drawn) [c59]	A (50-100)	A (50-100)	A (80-100)
O=C1Cc2cc(NC(=O)c3cc(NC(=O)C4C(c5cc(Cl)cc(Cl)c5)C4(Cl)Cl)ccc3Cl)ccc2N1 (stereo not drawn) [c60]	A (50-100)	A (50-100)	A (80-100)
O=C(Nc1cc2cc[nH]c2cn1)c1cc(NC(=O)C2C(c3cc(Cl)cc(Cl)c3)C2(Cl)Cl)ccc1Cl (stereo not drawn) [c61]	A (50-100)	A (50-100)	A (80-100)
O=C(Nc1ccc2nccn2c1)c1cc(NC(=O)C2C(c3cc(Cl)cc(Cl)c3)C2(Cl)Cl)ccc1Cl (stereo not drawn) [c62]	A (50-100)	A (50-100)	A (80-100)
Cn1ncc2cc(NC(=O)c3cc(NC(=O)C4C(c5cc(Cl)cc(Cl)c5)C4(Cl)Cl)ccc3Cl)cnc21 (stereo not drawn) [c63]	A (50-100)	A (50-100)	A (80-100)
Cc1ccc2c(NC(=O)c3cc(NC(=O)C4C(c5cc(Cl)cc(Cl)c5)C4(Cl)Cl)ccc3Cl)n[nH]c2c1 (stereo not drawn) [c64]	A (50-100)	A (50-100)	A (80-100)
Cc1cc(N2C(=O)C=CC2=O)ccc1NC(=O)c1cc(NC(=O)C2C(c3cc(Cl)cc(Cl)c3)C2(Cl)Cl)ccc1Cl (stereo not drawn) [c65]	A (50-100)	A (50-100)	A (80-100)
O=C(Nc1cnc2[nH]ccc2c1)c1cc(NC(=O)C2C(c3cc(Cl)cc(Cl)c3)C2(Cl)Cl)ccc1Cl (stereo not drawn) [c66]	A (50-100)	A (50-100)	A (80-100)
CCOC(=O)c1cc2cc(NC(=O)c3cc(NC(=O)C4C(c5cc(Cl)cc(Cl)c5)C4(Cl)Cl)ccc3Cl)ccc2[nH]1 (stereo not drawn) [c67]	A (50-100)	A (50-100)	A (80-100)
CC(C)(C)OC(=O)n1ccc2cc(NC(=O)c3cc(NC(=O)C4C(c5cc(Cl)cc(Cl)c5)C4(Cl)Cl)ccc3Cl)ccc21 (stereo not drawn) [c68]	A (50-100)	A (50-100)	D (No activity noticed in this bioassay)
